# Reference: patent US20060241178A1, “Compositions and methods for treating lung cancer” (priority 2002, published 2006)
# Read-outs that look alike come from different tables or passages of the source.
# Tests used:
# [1] = tested on: AP-1 binding activity in A549 cells; experiment: EMSA of AP-1 binding activity in A549 cells; type: cell-based, human
# Description: (§1) Cell Lines: The human lung adenocarcinoma cell line A549 was obtained from the American Type Culture Collection (ATCC) (Bethesda, Md.). […] Cells were grown at 37° C. with 5% CO2.
# (§2) Reagents: The PEITC was obtained from Aldrich (Milwaukee, Wis.) and its N-acetylcysteine conjugate was synthesized in house by the Organic Synthesis Facility using the method described previously (Kassahun et al., Chem Res Toxicol 1997, 10(11):1228-33). Unless specified otherwise, the A549 cells were treated with 10 or 25 μM of PEITC-NAC. TPA (12-O-tetradecanoylphorbol-13-acetate) was purchased from Sigma (St. Louis, Mo.).
# Electrophoretic Mobility Shift Assay (EMSA): Double-stranded oligonucleotides containing the consensus-binding site for AP-1 were purchased commercially (Santa Cruz Biotech). The oligos were labeled with γ-^32P-ATP (6000 Ci/mmol, Armeshem Pharmacia Biotech. Inc Piscataway, N.J.) using polynucleotide kinase (Promega, Madison, Wis.) according to standard procedures. The labeled DNA was incubated with 5 μg of total proteins (as specified in the Results section) for 10 min at room temperature, in the presence of 1 μg of poly d(I)-d(C) oligomer (Roche Molecular Biochemicals, Indianapolis, Ind.) and DNA-binding buffer as described previously (Yang et al., Cell Growth Differ 1993, 4(7):595-602). The complexes were then separated on a 7.5% polyacrylamide gel and autoradiographed.
# Proteins Isolation: Cells were incubated in a 37° C. with 5% CO2, followed by mock or treatments specified in the results section. Total proteins were then isolated using RIPA buffer. The protease inhibitors aprotinin (1 μg/ml), leupeptin (1 μg/ml), pepstatin (1 μg/ml), phenylmethylsulfonyl fluoride (0.1 mM) and the phosphatase inhibitor Na3VO4 (1 mM), NaF (1 mM) were added to all buffers. The protein concentrations were determined using the Coomassie Plus Protein Assay Reagent (Pierce, Rockford, Ill.), and aliquots of the proteins were stored at −80° C.
# JNK 1 and 2 = experiment: Western blot of lung total proteins: JNK phosphorylation; type: in vivo, A/J mice; conditions: lung tissue 21 days after B(a)P
# [2] = tested on: NNK/B(a)P-induced lung adenomas and adenocarcinomas; conditions: for Adenocarcinoma Incidence (%) / Adenocarcinoma Multiplicity mean ± SD / Adenoma Incidence (%) / Adenoma Multiplicity mean ± SD: preliminary
# Description: The test compounds were given in the diet on week 21 after beginning of a weekly dose of a mixture of NNK/B(a)P: 3 μmol each (621 μg NNK and 756 μg B(a)P) in 0.1 ml cottonseed oil for eight weeks (a total of 8 doses) (groups 1 to 10); only vehicle (cottonseed oil) for groups 11 to 15. Animals were then given experimental diet for 20 weeks until week 40. Four mice in groups 1, 2, 4, 6, 8, and 10 (see Table 1) were sacrificed on weeks 20, 38, and 40. The bioassay was terminated on week 52. If sufficient numbers of tumors were developed in mice killed on week 40, the bioassay was terminated at week 40. Tumors (adenomas and carcinomas) were quantified by multiplicity and incidence. At sacrifice, livers and lungs were harvested and the tissues rinsed in autoclaved PBS, stored in labeled foil, and snap frozen in liquid nitrogen. These tissues both tumorous and non-tumorous were processed by histology for biomarker studies (TUNEL, PCNA,p53, […] kinases, etc.). Lungs were examined by histology at termination (52 week or 40 week) for adenomas and carcinomas).
# In this study, the potential protective effects of ITCs and ITC-NACs against progression of lung adenomas to malignant tumors were investigated. Lung tumors were induced in A/J mice with 3 μmol B(a)P plus 3 μmol NNK (gavage once/wk, 8 wks); mice were maintained on AIN-76A semi-purified diets. […] Diets containing PEITC (phenethyl ITC) or SFN (sulforaphane), each at 3 mmol/kg and 1.5 mmol/kg diet; PEITC-NAC or SFN-NAC at 8 mmol/kg and 4 mmol/kg diet; and NAC at 8 mmol/kg diet were then provided to groups of 28 mice (high dose) or 20 mice (low dose) during weeks 20 to 40 after initiation. Four mice in each high dose treatment group were killed during weeks 28 and 40 to monitor tumor incidence and progression; lung tissues were used for molecular studies. Remaining mice were killed at 40 weeks for histopathological examination. […] To assess molecular events occurring during the treatments, lung RNA of mice treated with B(a)P+NNK/control diet and B(a)P+NNK/PEITC-NAC high dose diet was examined using a Mouse Cancer Pathway Finder Gene Array.
# A549 cells = experiment: Flow cytometry cell cycle analysis / survival of A549 cells; type: cell-based, human
# Description: as §1, §2
# Cell cycle analysis: A549 cells were harvested following 16 and 24 h treatment with various concentrations of PEITC-NAC by fixation in 70% ethanol. Cellular DNA was determined following staining with 1 μg/ml of 4,6-diamidino-2-ephynylindole (DAPI, Molecular Probes, Eugene, Oreg.) dissolved in PBS. Cellular blue fluorescence was measured using the Elite ESP flow cytometer/cell sorter (Coulter, Miami, Fla.) following excitation with a Ni/Cad UV light emitting laser. The data were collected and DNA histograms were deconvoluted using Multicycle software (Phoenix Flow Systems, San Diego, Calif.).
# [3] = tested on: c-Jun (AP-1 pathway) and Akt pathway genes; experiment: Mouse Cancer Pathway Finder Gene Array on lung RNA; type: in vivo, A/J mice; conditions: PEITC-NAC high dose diet vs control diet
# From the text: Some mice also had developed forestomach masses. […] Findings involving other pathways will be presented.
# [4] = high dose (3 or 8 mmol/kg diet)
# [5] = low dose (1.5 or 4 mmol/kg diet)
smiles,measurement,setting,value
"CC(=O)N[C@@H](CSC(=S)NCCc1ccccc1)C(=O)O [PEITC-NAC, N-acetylcysteine Conjugate of phenethyl isothiocyanate]",earliest appearance of AP-1 activation,[1]; 10 μM,30 min
same,concentration of peak AP-1 binding activity,[1]; 24 h treatment,10 µM
same,lowest concentration stimulating AP-1 activation,[1]; 24 h treatment,1 µM
same,JNK 1 (p46) phosphorylation level,JNK 1 and 2,increase
same,JNK 2 (p54) phosphorylation,JNK 1 and 2,only slightly induced
same,incidence of adenocarcinoma/squamous carcinoma,"[2]; 8 mmol/kg diet, initiated control group 60%",20%
same,mean numbers of lung adenomas compared with carcinogen control mice,[2]; at termination,decreases were significant
same,Adenocarcinoma Incidence (%),[2]; [4],5/31 (16.1%)
same,Adenocarcinoma Multiplicity mean ± SD,[2]; [4],0.52 ± 1.50
same,Adenoma Incidence (%),[2]; [4],30/31 (96.8%)
same,Adenoma Multiplicity mean ± SD,"[2]; high dose (PEITC, SFN 3 mmol/kg diet; PEITC-NAC, SFN-NAC, NAC 8 mmol/kg diet)",8.19 ± 3.99
same,Adenocarcinoma Incidence (%),[2]; [5],4/19 (21.05%)
same,Adenocarcinoma Multiplicity mean ± SD,[2]; [5],0.53 ± 1.14
same,Adenoma Incidence (%),[2]; [5],17/19 (89.47%)
same,Adenoma Multiplicity mean ± SD,"[2]; low dose (PEITC, SFN 1.5 mmol/kg diet; PEITC-NAC, SFN-NAC 4 mmol/kg diet)",7.58 ± 3.88
same,malignant tumor multiplicity,"[2]; low dose groups, initiated control group 2.1",0.9 tumors/mouse
same,cells undergoing apoptosis (sub-G1 peak),A549 cells; 10 μM for 24 h,4.5%
same,cell survival,"A549 cells; 100 μM, 24 h",no lung cells appear to survive
same,c-Jun expression (AP-1 pathway) and Akt pathway genes,[3],up-regulated
